Assay results as given in the supplement of paper PMC11061612.

Experiments:
Test in all cases: Bliss excess, mean over the matrix (fraction); higher = more synergy
[1] = tested on: CADO-ES1 (Ewing's Sarcoma)
In short: (§1)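 Cell lines in DMEM/F12 or RPMI with 10% FBS were plated in 1536-well plates, held 24 hours at 37°C, 5% CO2, then given two-drug dose matrices for 72 hours (DMSO typically 0.2%). Viability was read by CellTiter-Glo 2.0 luminescence and scaled as inhibition from 0 (vehicle wells) to 1 (blank wells). Combination Emax is the second-highest inhibition in the matrix; Bliss excess is observed combination effect minus expected EA + EB − EA·EB, EA and EB being single-agent effects.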

[2] = tested on: COLO-679 (Melanoma)
In short: as §1

[3] = tested on: EFO-21 (Ovarian Carcinoma)
In short: as §1

[4] = tested on: EJM (Plasma Cell Myeloma)
In short: as §1

[5] = tested on: G-401 (Other Solid Carcinomas)
In short: as §1

[6] = tested on: HAL-01 (B-Lymphoblastic Leukemia)
In short: as §1

[7] = tested on: HCC2998 (Colorectal Carcinoma)
In short: as §1

[8] = tested on: Hey (Ovarian Carcinoma)
In short: as §1

[9] = tested on: KGN (Other Solid Carcinomas)
In short: as §1

[10] = tested on: KOPN-8 (B-Lymphoblastic Leukemia)
In short: as §1

[11] = tested on: MDA-MB-453 (Breast Carcinoma)
In short: as §1

[12] = tested on: ML-2 (Acute Myeloid Leukemia)
In short: as §1

[13] = tested on: MOG-G-UVW (Low Grade Glioma)
In short: as §1

[14] = tested on: Mo-T (Other Blood Carcinomas)
In short: as §1

[15] = tested on: NCI-H1993 (Lung Adenocarcinoma)
In short: as §1

[16] = tested on: NCI-H2122 (Lung Adenocarcinoma)
In short: as §1

[17] = tested on: NCI-H650 (Lung Adenocarcinoma)
In short: as §1

[18] = tested on: OACM5-1 (Esophageal Adenocarcinoma)
In short: as §1

[19] = tested on: SK-N-AS (Neuroblastoma)
In short: as §1

[20] = tested on: SW982 (Other Solid Carcinomas)
In short: as §1

| SMILES | Bliss excess [1] | Bliss excess [2] | Bliss excess [3] | Bliss excess [4] | Bliss excess [5] | Bliss excess [6] | Bliss excess [7] | Bliss excess [8] | Bliss excess [9] | Bliss excess [10] | Bliss excess [11] | Bliss excess [12] | Bliss excess [13] | Bliss excess [14] | Bliss excess [15] | Bliss excess [16] | Bliss excess [17] | Bliss excess [18] | Bliss excess [19] | Bliss excess [20] |
| --- | --- | --- | --- | --- | --- | --- | --- | --- | --- | --- | --- | --- | --- | --- | --- | --- | --- | --- | --- | --- |
| CC1(C)CCC(CN2CCN(c3ccc(C(=O)NS(=O)(=O)c4ccc(NCC5CCOCC5)c([N+](=O)[O-])c4)c(Oc4cnc5[nH]ccc5c4)c3)CC2)=C(c2ccc(Cl)cc2)C1 [Venetoclax] + Cc1cc2ncnn2cc1Nc1ncc2c(n1)n(C1CCOCC1)c(=O)n2C [AZD7648] (first compound max 1 µM, 7x7, partner max 10 µM) | -0.0223 | -0.0363 | -0.0212 | 0.0292 | -0.061 | -0.022 | -0.0314 | -0.0604 | -0.0339 | 0.0037 | -0.0037 | 0.0057 | -0.0482 | 0.0426 | -0.0583 | 0.0311 | -0.0489 | -0.0269 | -0.0485 | 0.0103 |
| CC1(C)CCC(CN2CCN(c3ccc(C(=O)NS(=O)(=O)c4ccc(NCC5CCOCC5)c([N+](=O)[O-])c4)c(Oc4cnc5[nH]ccc5c4)c3)CC2)=C(c2ccc(Cl)cc2)C1 [Venetoclax] + C1CN(CCC1(C(=O)N[C@@H](CCO)C2=CC=C(C=C2)Cl)N)C3=NC=NC4=C3C=CN4 [Capivasertib] (first compound max 1 µM, 7x7, partner max 3 µM) | -0.0206 | -0.0357 | -0.131 | 0.0067 | -0.105 | -0.0206 | -0.0133 | -0.0504 | -0.0592 | -0.0009 | -0.0022 | 0.03 | -0.0404 | -0.013 | -0.001 | 0.0256 | -0.0395 | 0.0191 | -0.0237 | -0.0523 |
| CC(=O)Nc1cccc(-n2c(=O)n(C3CC3)c(=O)c3c(Nc4ccc(I)cc4F)n(C)c(=O)c(C)c32)c1 [Trametinib] + Cc1nc(-c2cn3c(n2)-c2ccc(-c4cnn(C(C)(C)C(N)=O)c4)cc2OCC3)n(C(C)C)n1 [Taselisib] (first compound max 1 µM, 7x7, partner max 10 µM) | -0.0253 | -0.0331 | 0.048 | 0.142 | 0.0082 | 0.147 | 0.0408 | 0.0984 | 0.0972 | -0.101 | -0.0279 | 0.197 | -0.0446 | 0.142 | 0.0556 | 0.0862 | 0.136 | 0.03 | 0.0104 | 0.0666 |
| NC1(C(=O)N[C@@H](CCO)c2ccc(Cl)cc2)CCN(c2ncnc3[nH]ccc23)CC1 [Capivasertib] + CC(=O)c1c(C)c2cnc(Nc3ccc(N4CCNCC4)cn3)nc2n(C2CCCC2)c1=O [Palbociclib] (first compound max 10 µM, 7x7, partner max 10 µM) | -0.0849 | -0.201 | -0.0533 | -0.0189 | -0.009 | -0.0425 | -0.0745 | 0.0123 | 0.0128 | -0.0079 | 0.0753 | -0.0354 | 0.0666 | -0.0271 | 0.0642 | 0.0338 | -0.0413 | -0.0299 | -0.0033 | -0.0523 |
| Cc1c2c(nn1C)CSCc1cc(n(C)n1)CSc1cc(c3ccccc3c1)OCCCc1c(C(=O)O)n(C)c3c-2c(Cl)ccc13 [AZD5991] + CN(C)CCCOc1ccc(-c2ccc3ncc4c(c3c2)n(C2CCOCC2)c(=O)n4C)cn1 [AZD0156] (first compound max 1 µM, 7x7, partner max 1 µM) | -0.0098 | 0.0068 | -0.0062 | 0.0241 | 0.0014 | -0.0246 | 0.0003 | -0.0039 | -0.0314 | -0.118 | -0.0091 | -0.0149 | -0.0104 | -0.0236 | -0.0369 | 0.0237 | 0.0527 | -0.0029 | -0.0303 | -0.0485 |
| CC1(C)CCC(CN2CCN(c3ccc(C(=O)NS(=O)(=O)c4ccc(NCC5CCOCC5)c([N+](=O)[O-])c4)c(Oc4cnc5[nH]ccc5c4)c3)CC2)=C(c2ccc(Cl)cc2)C1 [Venetoclax] + Cn1cnc2c(F)c(Nc3ccc(Br)cc3Cl)c(C(=O)NOCCO)cc21 [Selumetinib] (first compound max 1 µM, 7x7, partner max 3 µM) | -0.0596 | -0.0203 | -0.069 | -0.006 | -0.0264 | 0.0009 | -0.0065 | -0.0238 | -0.0406 | 0.113 | -0.0284 | 0.0747 | 0.0564 | 0.021 | -0.0358 | 0.0375 | -0.0217 | 0.0243 | 0.0083 | -0.0722 |
| COc1cccc(OCCCN)c1-c1cc(Nc2cnc(C#N)cn2)n[nH]1 [Prexasertib] + O=C(c1cc(Cc2n[nH]c(=O)c3ccccc23)ccc1F)N1CCN(C(=O)C2CC2)CC1 [Olaparib] (first compound max 1 µM, 7x7, partner max 10 µM) | -0.0315 | -0.0407 | -0.1 | -0.0434 | -0.166 | 0.0006 | -0.0432 | -0.0098 | -0.031 | -0.0105 | -0.128 | -0.0006 | -0.0035 | 0.0066 | -0.0685 | -0.0471 | -0.0442 | -0.054 | -0.0412 | -0.103 |
